Reference: publication PMC2248166, “Quantitative peptide binding motifs for 19 human and mouse MHC class I molecules derived using positional scanning combinatorial peptide libraries” (Immunome Research, 2008)

What was measured:
Assay type in all cases: binding
HLA B*0801 = HLA B*0801 (Homo sapiens, UniProt P01889, A93T/A95T/D138N/E176V/E187T/K202T/Q94N/R180D/S35A/V36M/Y33D/Y91F); experiment: biochemical
HLA B*5301 = HLA B*5301 (Homo sapiens, UniProt P01889, A329T/A93T/A95T/C349S/D201E/D98Y/E176V/E187L/E204Q/E69T/G107R/I218V/K202T/L105A/L119I/N104I/Q94N/R106L/R155S/R180L/S101N/S121R/S35A/S48A/T118I/V127L/V306I/V36M/Y140S/Y91F)
H-2 K^d = H-2 K^d (Mus musculus, UniProt P01902)
H-2 K^d, sequence (P01887 21-119): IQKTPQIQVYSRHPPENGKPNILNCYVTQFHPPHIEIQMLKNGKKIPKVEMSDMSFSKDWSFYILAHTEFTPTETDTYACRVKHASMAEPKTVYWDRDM
H-2 K^d, sequence (P01902 22-368): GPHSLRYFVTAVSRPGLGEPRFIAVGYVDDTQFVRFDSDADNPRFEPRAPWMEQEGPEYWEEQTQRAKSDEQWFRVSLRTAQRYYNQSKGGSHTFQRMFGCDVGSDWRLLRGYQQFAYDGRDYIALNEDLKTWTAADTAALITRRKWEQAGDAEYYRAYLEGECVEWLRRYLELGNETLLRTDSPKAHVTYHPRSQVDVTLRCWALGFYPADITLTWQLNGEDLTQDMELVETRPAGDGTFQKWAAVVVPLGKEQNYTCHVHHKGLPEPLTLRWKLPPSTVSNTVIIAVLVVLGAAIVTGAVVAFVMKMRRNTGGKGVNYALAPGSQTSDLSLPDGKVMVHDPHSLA

H-2 D^d = H-2 D^d (Mus musculus, UniProt P01900)
H-2 D^d, sequence (P01900 whole entry, looked up): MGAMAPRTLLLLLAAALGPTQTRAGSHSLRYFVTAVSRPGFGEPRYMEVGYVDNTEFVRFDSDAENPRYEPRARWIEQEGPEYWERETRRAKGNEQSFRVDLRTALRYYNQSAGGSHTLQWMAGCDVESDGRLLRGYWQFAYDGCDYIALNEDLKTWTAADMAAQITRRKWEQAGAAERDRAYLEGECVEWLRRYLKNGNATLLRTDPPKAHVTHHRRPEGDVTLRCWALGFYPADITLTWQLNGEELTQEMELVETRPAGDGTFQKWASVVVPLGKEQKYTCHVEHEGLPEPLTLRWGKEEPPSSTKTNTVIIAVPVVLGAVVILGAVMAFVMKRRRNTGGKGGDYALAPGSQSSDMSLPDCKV

HLA B*1503 = HLA B*1503 (Homo sapiens, UniProt P01889, A329T/A93T/A95T/C349S/D201E/D98Y/E187L/E204Q/K202T/N87E/Q94N/R155S/R180L/S121R/S35A/V306I/V36M/Y140S/Y91S); experiment: biochemical
HLA B*5101 = HLA B*5101 (Homo sapiens, UniProt P01889, A329T/A93T/A95T/C349S/D138N/D201E/D98Y/E187L/E204Q/E69T/G107R/I218V/K202T/L105A/L119W/N104I/Q94N/R106L/R155S/R180L/S101N/S121T/S35A/S48A/V306I/V36M/Y195H/Y91F)
HLA B*1501 = HLA B*1501 (Homo sapiens, UniProt P01889, A329T/A93T/A95T/C349S/D201E/D98Y/E187L/E204Q/E69M/E70A/K202T/N87E/Q94N/R155S/R180W/S121R/S35A/S48A/V306I/V36M/Y140S/Y91S); experiment: biochemical
HLA A*3001 = HLA A*3001 (Homo sapiens, UniProt P04439, D140H/D185E/E176W/F33S/G80R/H175R/K168Q/R138E/R41S); experiment: biochemical
HLA B*3501 = HLA B*3501 (Homo sapiens, UniProt P01889, A329T/A93T/A95T/C349S/D201E/D98Y/E176V/E187L/E204Q/E69T/I218V/K202T/L119I/Q94N/R155S/R180L/S121R/S35A/S48A/T118I/V127L/V306I/V36M/Y140S/Y91F)
HLA B*5801 = HLA B*5801 (Homo sapiens, UniProt P01889, A329T/C349S/D201E/D98Y/E176V/E187L/E204Q/E69T/G107R/I218V/I90N/K202T/L105A/L119I/N104I/N87E/Q89R/Q94S/R106L/R155S/R180L/R86G/S101N/S121R/S35A/S48A/T118I/V127L/V306I/V36M/Y140S/Y91M)
HLA A*3201 = HLA A*3201 (Homo sapiens, UniProt P04439, A270S/D101S/D185E/E176V/E277Q/F133L/G103R/G107R/G231S/H175R/I121M/I218V/I322F/K168Q/L105A/L300P/L318F/M331R/P208A/P217A/Q94H/R106L/R138Q/S129P/T104I/T323A/T345S/V100E/V321M/V358M); experiment: biochemical
HLA B*5401 = HLA B*5401 (Homo sapiens, UniProt P01889, A329T/C349S/D138N/D201E/E176V/E187T/E204Q/E69G/I76V/K202T/L119W/R155S/R180L/S121T/S35A/S48A/V127L/V306I/V36M/Y140L)
H-2 D^b = H-2 D^b (Mus musculus, UniProt P01899)
H-2 D^b, sequence (P01887 21-119): as the sequence (P01887 21-119) above
H-2 D^b, sequence (P01899 25-362): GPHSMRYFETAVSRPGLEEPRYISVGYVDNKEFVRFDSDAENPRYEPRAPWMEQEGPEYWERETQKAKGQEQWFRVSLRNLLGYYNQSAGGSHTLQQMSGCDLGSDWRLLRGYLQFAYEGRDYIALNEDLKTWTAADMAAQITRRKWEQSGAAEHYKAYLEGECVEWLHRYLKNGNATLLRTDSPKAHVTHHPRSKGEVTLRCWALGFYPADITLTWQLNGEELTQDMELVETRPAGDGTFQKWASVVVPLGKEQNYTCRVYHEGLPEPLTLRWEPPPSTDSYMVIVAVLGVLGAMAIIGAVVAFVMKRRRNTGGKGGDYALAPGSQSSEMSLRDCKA

H-2 K^k = H-2 K^k (Mus musculus, UniProt P04223)
H-2 K^k, sequence (P01887 21-119): as the sequence (P01887 21-119) above
H-2 K^k, sequence (P04223 22-369): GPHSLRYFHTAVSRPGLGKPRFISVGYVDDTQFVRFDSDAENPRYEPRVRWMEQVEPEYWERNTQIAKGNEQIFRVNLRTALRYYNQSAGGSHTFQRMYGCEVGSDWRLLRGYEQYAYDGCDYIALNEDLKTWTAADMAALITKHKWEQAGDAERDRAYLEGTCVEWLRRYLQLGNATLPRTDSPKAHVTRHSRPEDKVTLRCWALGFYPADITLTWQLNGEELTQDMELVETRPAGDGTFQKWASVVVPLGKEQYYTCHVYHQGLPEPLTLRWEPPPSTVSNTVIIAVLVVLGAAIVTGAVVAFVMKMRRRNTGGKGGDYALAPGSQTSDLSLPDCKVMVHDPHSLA

HLA A*6802 = HLA A*6802 (Homo sapiens, UniProt P04439, A269V/D140Y/D185E/E176V/E277Q/E87N/F33Y/G231S/I121R/I166T/I218V/L180W/L300P/L318F/N151K/P208A/P217A/Q86R/R138H/R169H/S129P/T345S/V36M)
HLA B*5802 = HLA B*5802 (Homo sapiens, UniProt P01889, A329T/C349S/D201E/D98Y/E176V/E187L/E204Q/E69T/G107R/I218V/I90N/K202T/L105A/N104I/N87E/Q89R/Q94S/R106L/R155S/R180L/R86G/S101N/S121W/S35A/S48A/V127L/V306I/V36M/Y140S/Y91M)

Sequence | Normalized average relative binding affinity(ARB) (HLA B*0801) | Normalized average relative binding affinity(ARB) (HLA B*5301) | Normalized average relative binding affinity(ARB) (H-2 K^d) | Normalized average relative binding affinity(ARB) (H-2 D^d) | Normalized average relative binding affinity(ARB) (HLA B*1503) | Normalized average relative binding affinity(ARB) (HLA B*5101) | Normalized average relative binding affinity(ARB) (HLA B*1501) | Normalized average relative binding affinity(ARB) (HLA A*3001) | Normalized average relative binding affinity(ARB) (HLA B*3501) | Normalized average relative binding affinity(ARB) (HLA B*5801) | Normalized average relative binding affinity(ARB) (HLA A*3201) | Normalized average relative binding affinity(ARB) (HLA B*5401) | Normalized average relative binding affinity(ARB) (H-2 D^b) | Normalized average relative binding affinity(ARB) (H-2 K^k) | Normalized average relative binding affinity(ARB) (HLA A*6802) | Normalized average relative binding affinity(ARB) (HLA B*5802)
XXXXXXSXX [3064.0136] | 0.35 | 0.087 | 0.92 | 0.038 | 0.32 | 0.51 | 0.65 | 0.042 | 0.22 | 0.14 | 0.14 | 0.098 | 0.34 | 0.16 | 0.40 | 0.044
XXXXXXTXX [3064.0137] | 0.46 | 0.081 | 1.0 | 0.029 | 0.16 | 0.58 | 0.49 | 0.11 | 0.27 | 0.28 | 0.14 | 0.33 | 0.67 | 0.061 | 0.60 | 0.057
XXXXXXVXX [3064.0138] | 0.55 | 0.32 | 0.13 | 0.045 | 0.19 | 0.57 | 0.56 | 0.19 | 0.57 | 0.53 | 1.0 | 0.77 | 0.57 | 0.079 | 0.80 | 0.073
XXXXXXWXX [3064.0139] | 0.53 | 0.31 | 0.056 | 0.044 | 0.15 | 0.91 | 0.31 | 0.16 | 1.0 | 0.79 | 0.48 | 0.22 | 0.31 | 0.064 | 1.0 | 0.18
XXXXXXXAX [3064.0141] | 0.95 | 0.80 | 1.0 | 0.93 | 0.27 | 0.52 | 0.36 | 0.53 | 1.0 | 0.14 | 0.99 | 0.50 | 0.50 | 0.82 | 1.0 | 0.31
XXXXXXXCX [3064.0142] | 0.22 | 0.078 | 0.28 | 0.78 | 0.11 | 0.38 | 0.18 | 0.11 | 0.087 | 0.18 | 0.11 | 0.74 | 0.12 | 0.37 | 0.19 | 0.21
XXXXXXXDX [3064.0143] | 0.17 | 0.082 | 0.62 | 0.44 | 0.14 | 0.17 | 0.049 | 0.052 | 0.073 | 0.063 | 0.10 | 0.038 | 0.090 | 0.26 | 0.093 | 0.087
XXXXXXXEX [3064.0144] | 0.24 | 0.10 | 0.55 | 0.65 | 0.11 | 0.34 | 0.23 | 0.12 | 0.098 | 0.18 | 0.27 | 0.13 | 0.33 | 0.46 | 0.14 | 0.30
